Literature values in patent publication US20050171434A1, “Chromophore probes for optical imaging” (VisEn Medical, Inc., priority 2002, published 2005).

- λem (emission wavelength): 694 nm
- λex (excitation wavelength): 675 nm
Substance: Cy5.5
